Data reported in patent US20230181746A1, “BENZOYLHYDRAZIDE-DERIVED HDAC DEGRADERS AS THERAPEUTICS FOR TREATING CANCER AND OTHER HUMAN DISEASES” (University of Florida Research Foundation, Inc., priority 2020, published 2023).

How the values were obtained:
Assay type in all cases: cell-based
[1] = system: NCI-60 panel of 60 cancer lines; experiment: NCI-60 cell line panel proliferation; conditions: five doses; leukemia, NSCLC, colon, CNS, melanoma, ovarian, renal, prostate and breast cancer lines
Procedure: The indicated cancer cell lines were treated with XZ9002 at five different doses. The percentage growth relative to the cell numbers before compound exposure was plotted against the XZ9002 concentrations in the log scale.

[2] = system: breast cancer cell lines MCF7, T47D, MDA-MB-468, HCC-1143 and BT479; experiment: Clonogenic growth assay, breast cancer cell lines; conditions: compared with XZ9002-NC
Procedure: FIGS. 8A-8B show the cellular activity of XZ9002. […] Cells were lysed for WB. The relative HDAC3 protein level in each sample is shown. […] The indicated BC cell lines were exposed to DMSO, XZ9002, or XZ9002-NC at the indicated concentrations. Colonies were fixed and stained.
Cell lines were obtained from ATCC and subsequently authenticated. Cells were cultured with DMEM supplemented with 10% bovine calf serum, penicillin to 10 units/mL, and streptomycin to 10 μg/mL. For viability assays, 5,000 cells/well were seeded in 96-well plates. Compounds at a specified concentration or DMSO were added 24 h later. Viability assays were performed 72 h after compound addition using the CellTiter-Glo reagents (Promega). For colony formation assay, cells (˜1,000 cells/well) were seeded in a 24-well plate in quadruplicates. At 24 h after seeding, DMSO, XZ9002, or XZ9002-NC were added at a specified concentration. Medium was replaced with freshly prepared medium containing DMSO, XZ9002 or XZ9002-NC every five days until visible colonies appeared, typically in 15 to 20 days after initial cell seeding. Cells were fixed with 4% paraformaldehyde for 15 min and stained with 2% methylene blue in 20% ethanol for 30 min to 1 h. The cells were washed twice with distilled water and dried in air. For western blotting, cell cultures were exposed to compounds as indicated in relevant figures. […]

HDAC3 = HDAC3 (Homo sapiens, UniProt O15379); experiment: HDAC3 degradation in breast cancer cell lines, Western blot; set-up: endogenous in cells; host or cells: MDA-MB-468, T47D, MCF7; conditions: MDA-MB-468 cells
Excerpt: Data are presented as representative figures of two independent experiments.
Cells were lysed for WB with antibodies against the indicated proteins. Antibodies against acetylated histones at specific sites (H3K27 and H4K5) and acetyl-lysine were used to assess levels of histone acetylation.
Cells were lysed for WB. […] The indicated BC cell lines were exposed to DMSO, XZ9002, or XZ9002-NC at the indicated concentrations. Colonies were fixed and stained.
Cell lines were obtained from ATCC and subsequently authenticated. Cells were cultured with DMEM supplemented with 10% bovine calf serum, penicillin to 10 units/mL, and streptomycin to 10 μg/mL. For viability assays, 5,000 cells/well were seeded in 96-well plates. […] For colony formation assay, cells (˜1,000 cells/well) were seeded in a 24-well plate in quadruplicates. […] Medium was replaced with freshly prepared medium containing DMSO, XZ9002 or XZ9002-NC every five days until visible colonies appeared, typically in 15 to 20 days after initial cell seeding. Cells were fixed with 4% paraformaldehyde for 15 min and stained with 2% methylene blue in 20% ethanol for 30 min to 1 h. The cells were washed twice with distilled water and dried in air. For western blotting, cell cultures were exposed to compounds as indicated in relevant figures. Medium was removed from culture plate, and 1 x passive lysis buffer was then added, the plates were frozen at −80° C. overnight and thawed at room temperature. The total cell lysates were mixed with a one fifth volume of 6x SDS sample buffer, heated at 95° C. for 5 min and cooled on ice. The lysates were cleared by centrifugation and then subjected to SDS-PAGE and western blotting essentially as described.

MDA-MB-468 cells = experiment: Cell viability assay (CellTiter-Glo); conditions: MDA-MB-468, 72 h; similar trends in MDA-MB-231 and T47D cells
Procedure: MDA-MB-468, MDA-MB-231, and T47D cells were treated with the indicated compounds at different concentrations for 72 h. Cell viability was assessed with CellTiter-Glo® reagents.
Cell lines were obtained from ATCC and subsequently authenticated. Cells were cultured with DMEM supplemented with 10% bovine calf serum, penicillin to 10 units/mL, and streptomycin to 10 μg/mL. For viability assays, 5,000 cells/well were seeded in 96-well plates. Compounds at a specified concentration or DMSO were added 24 h later. Viability assays were performed 72 h after compound addition using the CellTiter-Glo reagents (Promega). For colony formation assay, cells (˜1,000 cells/well) were seeded in a 24-well plate in quadruplicates. At 24 h after seeding, DMSO, XZ9002, or XZ9002-NC were added at a specified concentration. Medium was replaced with freshly prepared medium containing DMSO, XZ9002 or XZ9002-NC every five days until visible colonies appeared, typically in 15 to 20 days after initial cell seeding. Cells were fixed with 4% paraformaldehyde for 15 min and stained with 2% methylene blue in 20% ethanol for 30 min to 1 h. The cells were washed twice with distilled water and dried in air. For western blotting, cell cultures were exposed to compounds as indicated in relevant figures. Medium was removed from culture plate, and 1 x passive lysis buffer was then added, the plates were frozen at −80° C. overnight and thawed at room temperature. The total cell lysates were mixed with a one fifth volume of 6x SDS sample buffer, heated at 95° C. for 5 min and cooled on ice. The lysates were cleared by centrifugation and then subjected to SDS-PAGE and western blotting essentially as described. […]

Sequence of HDAC3 (O15379 whole entry): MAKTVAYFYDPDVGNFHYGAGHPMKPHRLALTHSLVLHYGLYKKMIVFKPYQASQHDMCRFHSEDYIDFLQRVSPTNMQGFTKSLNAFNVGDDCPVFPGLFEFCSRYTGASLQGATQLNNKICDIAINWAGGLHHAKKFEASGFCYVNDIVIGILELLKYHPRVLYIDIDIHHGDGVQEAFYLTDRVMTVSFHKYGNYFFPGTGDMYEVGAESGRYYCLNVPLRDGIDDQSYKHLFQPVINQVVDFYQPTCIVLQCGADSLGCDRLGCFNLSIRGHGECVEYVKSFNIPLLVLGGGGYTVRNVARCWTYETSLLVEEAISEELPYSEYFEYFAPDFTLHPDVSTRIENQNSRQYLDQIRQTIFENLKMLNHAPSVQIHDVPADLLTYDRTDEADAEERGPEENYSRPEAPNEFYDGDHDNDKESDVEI
Sequence of HDAC3 (Q9Y618 395-498 partner limits assumed): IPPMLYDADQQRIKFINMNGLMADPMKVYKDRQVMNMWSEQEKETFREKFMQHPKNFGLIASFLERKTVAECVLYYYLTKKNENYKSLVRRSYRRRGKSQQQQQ

SMILES: CCCNNC(=O)c1ccc(-c2ccc(NC(=O)CCCCCCC(=O)N[C@H](C(=O)N3C[C@H](O)C[C@H]3C(=O)N[C@@H](C)c3ccc(-c4scnc4C)cc3)C(C)(C)C)cc2)cc1 [XZ9002, N^1—((S)-1-((2S,4R)-4-hydroxy-2-(((S)-1-(4-(4-methylthiazol-5-yl)phenyl)ethyl)carbamoyl)pyrrolidin-1-yl)-3,3-dimethyl-1-oxobutan-2-yl)-N^5-(4′-(2-propylhydrazine-1-carbonyl)-[1,1′-biphenyl]-4-yl)octanediamide]
- inhibition of proliferation [1]: effectively inhibits the proliferation
- suppression of colony formation [2]: more potent to suppress colony formation
- start of HDAC3 degradation (HDAC3; 125 nM): ≤ 2 h
- time for HDAC3 to rebound to the steady level after washout (HDAC3; 125 nM for 14 h, then drug-free medium): more than 12 h
- HDAC3 degraded (HDAC3; 125 nM, 8 h): 70%
- DC50 (HDAC3; 14 h treatment, read-out: HDAC3 DC50 (the concentration for 50% protein degradation)): 42 nM
- HDAC3 degradation after pre-incubation with proteasome inhibitor MG132 (HDAC3; MG132 1 μM for 1 h, XZ9002 125 nM): blocked
- HDAC3 degradation after pre-incubation with VHL ligand VH032 (HDAC3; VH032 10 μM for 1 h, XZ9002 125 nM): blocked
- antiproliferative activity (in words) (MDA-MB-468 cells): more potent in killing cancer cells
